Data published in publication PMC2442904 (British Journal of Pharmacology, 2008).

Target: thioredoxin-1 (Trx) (Homo sapiens, UniProt P10599)
Test: insulin reduction assay with pure human Trx preincubated with PMX464
Format: biochemical

Chain of thioredoxin-1 (Trx) (P10599 2-105): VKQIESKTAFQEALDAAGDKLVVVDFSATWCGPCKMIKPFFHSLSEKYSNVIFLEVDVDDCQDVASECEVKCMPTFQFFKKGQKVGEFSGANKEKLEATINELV

For `O=C1C=CC(O)(c2nc3ccccc3s2)C=C1` [PMX464, 4-(benzothiazol-2-yl)-4-hydroxycyclohexa-2,5-dien-1-one hydrate], the IC50 was 20 µM.
